We go through 100 molecules from patent US20260094669A1, “EPITOPE PREDICTION VIA A LEARNED GENOTYPE NETWORK ACROSS CLASS II MHC ALLELES” (Seattle Project Corp., priority 2023, published 2026).

B1: MTEYKLVVVGAC (peptide)
peptide: MTEYKLVVVGAC
notes: KRAS G12C peptide eluted from HLA class II of cells engineered to express a KRAS G12C construct; also called Peptide_098class2; KRAS MHC II Peptide 098
B2: GACGVGKSALTIQLI (peptide)
peptide: GACGVGKSALTIQLI
notes: KRAS G12C peptide eluted from HLA class II of cells engineered to express a KRAS G12C construct; also called Peptide_099class2; KRAS MHC II Peptide 099

T1 sequence (P20036 29-222 limits assumed, chain 1 of 4, other chains not shown): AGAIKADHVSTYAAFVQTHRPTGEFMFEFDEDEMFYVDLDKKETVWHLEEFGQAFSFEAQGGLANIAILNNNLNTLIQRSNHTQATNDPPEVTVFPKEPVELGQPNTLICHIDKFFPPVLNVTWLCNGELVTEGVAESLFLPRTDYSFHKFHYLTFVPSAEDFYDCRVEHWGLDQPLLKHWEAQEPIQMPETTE
T1 sequence (P04440 30-225 limits assumed, chain 2 of 4, other chains not shown): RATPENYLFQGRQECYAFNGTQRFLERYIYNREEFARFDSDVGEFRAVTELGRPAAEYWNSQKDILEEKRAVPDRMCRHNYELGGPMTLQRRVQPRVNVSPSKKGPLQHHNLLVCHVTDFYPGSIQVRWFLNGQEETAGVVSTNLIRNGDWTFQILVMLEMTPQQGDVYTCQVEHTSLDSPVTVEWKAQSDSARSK

The first test has as its target T1, HLA-DP of DBB cells (DPA1*01:03/DPB1*04:01) (human, UniProt P20036 29-222; P04440 30-225, limits assumed).
T1 construct: whole, on cells; also called DBB_25mer DP
In words: targeted MS of peptides eluted from HLA-DP IP (B7/21.1), DBB cells expressing KRAS G12C 25mer.
Details: not given
With B1, the binding result is “binds”.

A further test deals with T2, HLA-DP of Raji cells (DPA1*02:02/DPB1*01:01) (human, UniProt P20036 29-222; P04440 30-225, limits assumed).
T2 construct: whole, on cells; also called Raji_25mer DP
T2 MHC II alpha: not shown
T2 MHC II beta: not shown
In words: targeted MS of peptides eluted from HLA-DP IP (B7/21.1), Raji cells expressing KRAS G12C 25mer.
Details: not given
For B2, the binding result is listed as “binds”.

Another test deals with IFNγ-producing T cells (PBMCs). In words: ex vivo IFNγ ELISpot assay. The class given is cell-based, human. To be noted: PBMCs from single donor SE-0386.
As for EYKLVVVGACG [Peptide_29], the “response to single peptides from CD8 pools, ex vivo ELISpot” value is recorded as “demonstrated a response”.

The test is the same for the next values; noted with them: patient G05-002-122 PBMCs following vaccination.
For EYKLVVVGACG [Peptide_29], the “responses to single 8-11mer peptides, ex vivo IFNγ ELISpot” value was “confirmed responses”.

Another test concerns rTCR Jurkat cells (CD69, CD25). In words: recombinant TCR (rTCR) Jurkat functional assay. To be noted: co-culture with class II matched KAS116 cells. The class given is cell-based, human.
On to EYKLVVVGACG [Peptide_29], for which the “response of TCR969/TCR995 rTCR Jurkat cells to the peptide” value is “confirmed responses”.

The test system of the next test is CD4+ T cell.
Assay: not given
To be noted: CD4+ immunogenicity label (1/0) used in logistic regression; ELISpot response data from Ott et al.; cited from earlier work.
AASAAAFPSQRTSWEFLQSLVSIKQEK: the y is 1.

In the case of AAVRPEQRPAARGSRV, the y was 0.

For ALLQNVELRRNVLVSPTPLAN, the y is given as 0.

As for ARLQSKEYPVIFKSIMRQRLISPQL, the y was 0.

ASATEPANDSLFSPGAANLFSTYLAR: the y is recorded as 0.

In the case of DEQGREAELARSGPSAAGPVRLKPGLVPGL, the y was 0.

Take DGAWPVLLDKFVEWYKDKQMS: the y is given as 0.

In the case of DGGRQHSGPRRHSGAGPKPSSSEWAVCWAP, the y is on record as 0.

In the case of DGVSEEFWLVDLLPSTHYT, the y was 1.

With DKGHQFHVHPLLHSGDDLDP, the y is listed as 0.

DRASFLLTDYALSPDGSIRKATG: the y is given as 1.

As for DRSVLAKKLKFVTLVFRHGDRSPID, the y is listed as 0.

Consider DSYHLYAYHEELSATVPSQWKKIG, for which the y was 0.

For DVTGPHLYSIYLHGSTDKLPYVTMGS, the y was 0.

For the molecule EDLDANLRKLNFRLFVIRGQPAD, the y is reported as 0.

EDSDKLFESKAELADHQKF: the y is 0.

Take EIHGKCENMTITSRGTTVTPTKETVSLG: the y is 0.

As to ELQYRGRELRFNLIANQHLLAPGFVSETR, the y was 1.

As to ERFWRNILLLSLHKGSLYPRIPGLGKE, the y was 0.

As to EVVGGYTWPSGNIYQGYWAQGKR, the y is on record as 0.

Regarding FAKGFRESDLNSWPVAPRPLLSV, the y is recorded as 0.

Consider FCGTPDYIAPKIIAYQPYGKSVD, for which the y is listed as 0.

Take FPVVQSTEDVFPQGLPNEYAFVT: the y is 0.

As for GDQYKATDFVADWAGTFKMVFTPKDGSG, the y is given as 1.

In the case of GHEHQPDMQKSLLRAAFFGKCFLDR, the y is recorded as 1.

GHQKLPGKIHLFEAEFTQVAKKEPDG: the y was 1.

For GLTRISIQRAQPLPPCLPSFRPPTALQGLS, the y is 0.

Consider GPLQLPVTRKNMPLPGVVKLPPLPGS, for which the y is 0.

Consider GRMSPSQFARVPGYVGSPLAAMNPK, for which the y is 1.

For GSGSQMPAWRTRGAISASSTQKTPTTRL, the y is reported as 0.

Regarding GSVLQFMPFTTVSELMKVSAMSSPKV, the y was 0.

Regarding HASHLQEHQRIYTGEKPFKCDT, the y is reported as 0.

As to HLLQKQTSIQSPSLYGNSSPPLNK, the y was 0.

Turning to KGEKNGMTFSSTKDYVNNV, the y was 0.

With KHLPGVNFPGNQWNPVEGILPS, the y is 0.

Take KLRTIPLSDNTIFRRICTIAKHLE: the y was 1.

Regarding KMQRRNDDKSILMHGLVSLRESSRG, the y was 0.

As for LCPREEFLRLCKKIMMRSIQ, the y was 0.

LENNANHDETSFLLPRKESNIVD: the y was 0.

For the molecule LGETMGQVTEKLQPTYMEET, the y is 0.

As to LHTHYDYVSALHPVSTPSKEYTSA, the y was 0.

Turning to LNTGLFRIKFKEPLENLI, the y was 0.

Regarding LSPREEFLRLCKKIMMRSIQ, the y was 1.

With MAGPKGFQYRALYPFRRER, the y is reported as 0.

Turning to MSQDIKKADEQIESMTYSTERKT, the y is listed as 0.

Turning to NLKAPRLLFAPEYGPKLKLRALEDRHS, the y is given as 0.

For the molecule NNSKKKWFLFQDSKKIQVEQPQ, the y was 0.

NQVLASRYGIRGFSTIKIFQKGESPV: the y was 0.

On to PAHPSQGAVPPSRAAAEPHLKPSPSELQTA, for which the y is recorded as 1.

Turning to PAPPPAVPKEHPAPPAPPPASAPTP, the y is on record as 0.

Regarding PASAKSRREFDKIELAYRR, the y is 0.

For the molecule PENDDLFMMPRIVDVTSLATEGG, the y was 0.

Consider PETGEIQVKTFLDREQRESYELKV, for which the y is on record as 0.

On to PGGDSGELITDAHELGVAHPPGY, for which the y is given as 0.

As to RGQIKLADFRLARLYSSEESR, the y is 0.

RGRLPAGAVRTLLSQVNKVWDQSS: the y is reported as 0.

On to RLVLGKFGDLTNNFSSPHAR, for which the y is given as 0.

In the case of RPAGRTQLLWTPAAPTAMAEVGPGHTP, the y was 1.

Turning to RRGGALFASRPRFTPL, the y was 0.

For RYNSTAATNEVSEVTVFSKSPVT, the y is reported as 0.

For SDAFSGLTALPQSILLFGP, the y is recorded as 0.

SGSPPLRVSVGDFSQEFSPIQEAQQD: the y is 1.

In the case of SHHTHSYQRYSHPLFLPGHRLDPPI, the y is recorded as 0.

As to SHKLESIKEITNFKDAKQLL, the y is given as 0.

As to SHLASLKNNVSPVLRSHSFSDPSPKFA, the y is listed as 1.

On to SHNELADSGIPENSFNVSSLVE, for which the y was 0.

In the case of SHQIHSYQLYTHPLLHPWDHRD, the y is on record as 0.

As for SHTQTTLFHTFYELLIQKNKHK, the y is 0.

As for SLPSNVLSSLVLVPLHTTPK, the y was 0.

Regarding SLRNNMFEISDRFIGIYKTYNITK, the y is reported as 0.

For SLTEESGGAVAFFPGNLSTSSSA, the y was 0.

With SPGPRTAPRPGSQKQAGKDWQ, the y is 0.

For the molecule SPIKLVQKVASKIPFPDRITEESV, the y is recorded as 0.

For SPQSGGAATLAAQARLQPVHLDVWGEHERG, the y is on record as 0.

Consider SRLQTRKNKKLALSSTPSNIAPSD, for which the y is reported as 1.

As for SSHYKFSKPALQSQSISLVQQS, the y is recorded as 1.

SSPLGRANGRRFANPRDSFSAMGFQR: the y is on record as 0.

In the case of STEVEPKESPHLARHRHLMKTLVKSLST, the y was 0.

Regarding STLPVISDSTTKRRWSALVIGL, the y is recorded as 0.

For the molecule STQHADLTIIDNIKEMNFLRRYK, the y was 0.

TAQFAPSPGQPPALSPSYPGHRLPLQQG: the y is given as 0.

Consider TETVNHHYLLFQNTDLGSFHDLLR, for which the y is reported as 1.

For TFPKKIQMLARDFLDEY, the y was 0.

TGKPEMDFVRLAQLFARARPMGLF: the y is recorded as 0.

With TIKNSDKNVVLEHFG, the y is listed as 0.

Turning to TKLKSKAPHWTNCILHEYKNLSTS, the y is given as 0.

For TKRQVILLHTELERFLEYLPLRF, the y was 0.

Take TRNSFALVPSLQRLMLRKVALKNVDSSPS: the y is reported as 0.

With TTPSGSAEYMASEVVEVFTDQAT, the y was 0.

Turning to TTVTHERKQAKVVNPPIQEVGKGARK, the y is 0.

VKQLERGEASVVDFKKNLEYAAT: the y was 0.

For the molecule VNGISSQPQVPFYPNLQKSQYYSTV, the y is listed as 0.

For the molecule VTLNDMKARQKALVRERERQLA, the y is listed as 0.

Regarding VTSPKASPVTFPAAAFPTASPANKD, the y is on record as 1.

Take WCTEMKRVFGFPVHYTDVSNMS: the y is recorded as 0.

For the molecule WTPAAPTAMAEVGPGHTPAHPSQGAVPP, the y is given as 1.

Consider YLSHTLGAASSFMRPTVPPPQF, for which the y is reported as 0.

For another test, the system named is CD4 or CD8 T cell depleted PBMCs. The test is described as follows: CD4/CD8 depletions followed by IFNγ ELISpot or FluoroSpot. It counts as cell-based, human. To be noted: PBMCs from single donors; peptide #29: donor SE-0386. Here is the method:
CD4 or CD8 T cells were depleted from total PBMCs using Miltenyi MACS microbeads and columns. PBMCs were labeled with anti-CD4 or anti-CD8 microbeads before being run through a MACS Column placed in a MACS Separator magnet. Labeled cells remained in the column and the negative fractions were collected as either the CD8 or CD4 enriched population. Cells were then plated at 200,000 cells/well and stimulated overnight in an IFNγ ELISpot assay or FluoroSpot assay to detect IFNγ or IL-2.
Take EYKLVVVGACG [Peptide_29]: the “responses in CD4 enriched (CD8 depleted) samples” value is “demonstrated responses”.

Still in this test, the particulars now being: class II long OLP pools deconvolution.
On to EYKLVVVGACG [Peptide_29], for which the “T cell response in healthy donor SE-0386” value is recorded as “CD4^+ T cell-dependent response”.
